Measured values reported in PMC11831560, “Development of the Pyrido[2,3-d]pyrimidin-7(8H)-one Scaffold toward Potent and Selective NUAK1 Inhibitors” (ACS Medicinal Chemistry Letters, 2025).
pIC50: −log10 of the molar value. Several values for one entry are separate records, joined by “and”; a condition that tells them apart may be missing. Identical values can stand only once.

Assays:
[1] = biological target: MAP4K5 (Homo sapiens, UniProt Q9Y4K4); assay: Kinase panel radiometric filter binding (33P-ATP); type: biochemical; parameters: % activity remaining: dose or concentration left out as unconfirmed; settings: for % activity remaining: MAP4K5
Chain of MAP4K5 (Q9Y4K4 whole entry, species assumed): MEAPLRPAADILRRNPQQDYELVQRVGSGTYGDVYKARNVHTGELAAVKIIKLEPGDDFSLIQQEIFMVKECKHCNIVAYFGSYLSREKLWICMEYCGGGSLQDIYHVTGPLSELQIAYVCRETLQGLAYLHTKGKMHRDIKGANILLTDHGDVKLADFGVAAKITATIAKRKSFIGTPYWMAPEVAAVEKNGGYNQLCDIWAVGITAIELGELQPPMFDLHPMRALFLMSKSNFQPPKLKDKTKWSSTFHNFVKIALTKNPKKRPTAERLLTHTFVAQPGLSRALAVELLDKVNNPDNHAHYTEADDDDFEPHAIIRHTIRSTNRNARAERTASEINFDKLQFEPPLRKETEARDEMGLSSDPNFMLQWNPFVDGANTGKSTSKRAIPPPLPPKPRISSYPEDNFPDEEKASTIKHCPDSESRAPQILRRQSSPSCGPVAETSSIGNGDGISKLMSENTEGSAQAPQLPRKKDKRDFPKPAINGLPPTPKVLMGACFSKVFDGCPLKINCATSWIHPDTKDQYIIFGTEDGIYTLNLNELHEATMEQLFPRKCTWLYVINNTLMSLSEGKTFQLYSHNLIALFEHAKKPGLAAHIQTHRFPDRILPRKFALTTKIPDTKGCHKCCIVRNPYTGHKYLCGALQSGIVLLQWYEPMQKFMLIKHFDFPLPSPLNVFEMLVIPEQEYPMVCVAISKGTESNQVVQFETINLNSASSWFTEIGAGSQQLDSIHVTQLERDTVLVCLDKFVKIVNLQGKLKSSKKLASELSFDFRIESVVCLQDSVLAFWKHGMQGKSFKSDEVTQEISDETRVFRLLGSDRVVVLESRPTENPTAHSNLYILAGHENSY
Experimental: (§1) Table S4: AMPKA kinase activity data (ADP-Glo assay)
(§2) Compound pIC50 (Fold selectivity
(§3) Table S5. Kinase selectivity screening for 9 and 24 at 1 µM against a general kinase panel of 140 targets
(§4) in radiometric filter binding assay using 33P-γ−ATP at the MRC PPU International Centre for Kinase
(§5) Profiling, University of Dundee. pIC50 values were determined for compounds with <20% activity
(§6) Kinase activity s.d. pIC50 activity s.d. pIC50

[2] = biological target: T1, MARK1 (Homo sapiens, UniProt Q9P0L2); assay: Kinase panel radiometric filter binding (33P-ATP); type: biochemical; parameters: % activity remaining: dose or concentration left out as unconfirmed; settings: for % activity remaining: MARK1
T1 construct: purchased MRC PPU
T1 sequence (Q9P0L2 whole entry): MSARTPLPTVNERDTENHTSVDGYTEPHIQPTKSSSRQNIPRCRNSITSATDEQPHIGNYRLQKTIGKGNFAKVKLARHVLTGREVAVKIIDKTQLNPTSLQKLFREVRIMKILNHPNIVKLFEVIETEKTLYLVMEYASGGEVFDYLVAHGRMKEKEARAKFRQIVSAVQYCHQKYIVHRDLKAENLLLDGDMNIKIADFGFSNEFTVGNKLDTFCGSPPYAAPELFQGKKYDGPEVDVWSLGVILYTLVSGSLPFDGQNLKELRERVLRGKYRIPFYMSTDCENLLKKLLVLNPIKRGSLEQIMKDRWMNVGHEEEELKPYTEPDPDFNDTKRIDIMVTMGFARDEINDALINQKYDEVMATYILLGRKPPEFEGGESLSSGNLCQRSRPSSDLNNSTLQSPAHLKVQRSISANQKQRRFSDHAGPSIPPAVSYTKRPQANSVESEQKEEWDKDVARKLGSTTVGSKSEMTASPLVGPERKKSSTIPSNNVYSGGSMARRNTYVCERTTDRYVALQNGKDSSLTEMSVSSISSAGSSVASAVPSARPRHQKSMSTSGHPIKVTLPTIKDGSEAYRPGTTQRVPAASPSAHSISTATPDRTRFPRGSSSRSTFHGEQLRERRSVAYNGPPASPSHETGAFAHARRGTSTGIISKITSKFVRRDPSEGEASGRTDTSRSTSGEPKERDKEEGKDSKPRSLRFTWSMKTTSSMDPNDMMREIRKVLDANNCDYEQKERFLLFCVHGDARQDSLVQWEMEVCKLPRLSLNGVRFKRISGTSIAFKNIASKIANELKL
Experimental: as §1, §2, §3, §4, §5, §6

[3] = biological target: T2, MARK4 (Homo sapiens, UniProt Q96L34); assay: Kinase panel radiometric filter binding (33P-ATP); type: biochemical; parameters: % activity remaining: dose or concentration left out as unconfirmed; settings: for % activity remaining: MARK4
T2 construct: purchased MRC PPU
T2 sequence (Q96L34 1-752): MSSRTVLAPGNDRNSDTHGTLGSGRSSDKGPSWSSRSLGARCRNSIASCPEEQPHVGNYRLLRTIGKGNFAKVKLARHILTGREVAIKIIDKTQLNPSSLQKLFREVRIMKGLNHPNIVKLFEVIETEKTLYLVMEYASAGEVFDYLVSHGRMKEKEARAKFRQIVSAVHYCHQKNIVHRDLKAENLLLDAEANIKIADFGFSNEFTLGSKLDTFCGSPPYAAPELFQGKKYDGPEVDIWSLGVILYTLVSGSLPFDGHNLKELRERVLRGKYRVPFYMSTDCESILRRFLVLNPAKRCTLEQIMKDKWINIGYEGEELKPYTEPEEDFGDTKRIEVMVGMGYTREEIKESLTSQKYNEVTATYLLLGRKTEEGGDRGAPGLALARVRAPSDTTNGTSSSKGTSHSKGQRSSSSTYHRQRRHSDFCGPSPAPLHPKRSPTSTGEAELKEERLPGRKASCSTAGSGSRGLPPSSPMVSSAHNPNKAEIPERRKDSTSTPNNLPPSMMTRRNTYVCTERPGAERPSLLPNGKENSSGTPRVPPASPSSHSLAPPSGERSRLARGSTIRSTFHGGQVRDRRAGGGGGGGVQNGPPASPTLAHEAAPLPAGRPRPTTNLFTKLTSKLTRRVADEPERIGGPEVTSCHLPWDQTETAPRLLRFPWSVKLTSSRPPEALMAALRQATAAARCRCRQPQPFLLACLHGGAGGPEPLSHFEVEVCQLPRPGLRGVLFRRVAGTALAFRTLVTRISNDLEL
Experimental: as §1, §2, §3, §4, §5, §6

[4] = biological target: SIK2 (Homo sapiens, UniProt Q9H0K1); assay: Kinase panel radiometric filter binding (33P-ATP); type: biochemical; parameters: % activity remaining: dose or concentration left out as unconfirmed; settings: for % activity remaining: SIK2
Chain of SIK2 (Q9H0K1 whole entry, species assumed): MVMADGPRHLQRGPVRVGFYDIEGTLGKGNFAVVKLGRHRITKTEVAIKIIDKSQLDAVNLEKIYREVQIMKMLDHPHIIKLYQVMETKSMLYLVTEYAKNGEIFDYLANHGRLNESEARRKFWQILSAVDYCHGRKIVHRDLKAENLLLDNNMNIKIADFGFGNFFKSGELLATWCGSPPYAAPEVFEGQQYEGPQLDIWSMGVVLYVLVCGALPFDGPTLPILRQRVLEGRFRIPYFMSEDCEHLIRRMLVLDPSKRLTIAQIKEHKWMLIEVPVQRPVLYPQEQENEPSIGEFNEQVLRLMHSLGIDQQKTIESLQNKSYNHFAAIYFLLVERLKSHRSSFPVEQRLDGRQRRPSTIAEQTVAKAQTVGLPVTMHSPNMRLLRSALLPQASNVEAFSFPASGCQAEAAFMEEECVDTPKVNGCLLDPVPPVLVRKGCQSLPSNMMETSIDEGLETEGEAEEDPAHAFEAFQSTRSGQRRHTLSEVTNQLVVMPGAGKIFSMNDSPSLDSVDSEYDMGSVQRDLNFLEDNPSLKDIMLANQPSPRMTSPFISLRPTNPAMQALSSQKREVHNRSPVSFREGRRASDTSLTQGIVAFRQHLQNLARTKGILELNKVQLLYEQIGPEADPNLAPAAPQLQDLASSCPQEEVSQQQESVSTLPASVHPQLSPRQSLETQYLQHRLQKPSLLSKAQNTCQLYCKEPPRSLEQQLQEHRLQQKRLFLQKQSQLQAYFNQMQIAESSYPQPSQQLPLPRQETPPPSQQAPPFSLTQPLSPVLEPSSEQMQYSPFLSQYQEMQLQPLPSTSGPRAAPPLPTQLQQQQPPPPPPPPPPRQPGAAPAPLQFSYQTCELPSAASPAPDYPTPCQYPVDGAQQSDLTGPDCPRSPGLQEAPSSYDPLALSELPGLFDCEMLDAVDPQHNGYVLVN
Experimental: as §1, §2, §3, §4, §5, §6

[5] = biological target: TrkA (Homo sapiens, UniProt P04629); assay: Kinase panel radiometric filter binding (33P-ATP); type: biochemical; parameters: % activity remaining: dose or concentration left out as unconfirmed; settings: for % activity remaining: TrkA
Chain of TrkA (P04629 33-796, species assumed): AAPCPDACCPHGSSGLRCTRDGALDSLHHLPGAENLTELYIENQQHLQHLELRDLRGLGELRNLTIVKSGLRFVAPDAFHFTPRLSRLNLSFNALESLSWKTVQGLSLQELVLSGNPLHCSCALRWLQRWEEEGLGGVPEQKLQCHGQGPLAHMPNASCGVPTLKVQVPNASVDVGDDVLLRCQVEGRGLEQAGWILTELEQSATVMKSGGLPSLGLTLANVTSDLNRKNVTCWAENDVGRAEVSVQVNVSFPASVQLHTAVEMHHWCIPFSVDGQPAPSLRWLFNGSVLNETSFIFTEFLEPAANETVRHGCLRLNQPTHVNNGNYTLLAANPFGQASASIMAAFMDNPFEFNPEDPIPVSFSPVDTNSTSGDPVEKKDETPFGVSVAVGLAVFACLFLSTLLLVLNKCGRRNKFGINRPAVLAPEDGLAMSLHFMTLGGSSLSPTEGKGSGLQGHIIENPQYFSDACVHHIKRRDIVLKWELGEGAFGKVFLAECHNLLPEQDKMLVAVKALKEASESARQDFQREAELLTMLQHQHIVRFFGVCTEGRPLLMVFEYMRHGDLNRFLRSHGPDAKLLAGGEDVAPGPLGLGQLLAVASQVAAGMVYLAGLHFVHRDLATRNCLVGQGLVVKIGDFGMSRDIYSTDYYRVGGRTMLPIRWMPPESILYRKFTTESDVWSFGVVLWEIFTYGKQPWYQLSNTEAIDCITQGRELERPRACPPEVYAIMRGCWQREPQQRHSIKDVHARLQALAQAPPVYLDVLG
Experimental: as §1, §2, §3, §4, §5, §6

[6] = biological target: T3, ULK2 (Homo sapiens, UniProt Q8IYT8); assay: Kinase panel radiometric filter binding (33P-ATP); type: biochemical; parameters: % activity remaining: dose or concentration left out as unconfirmed; settings: for % activity remaining: ULK2
T3 sequence (Q8IYT8 1-1036): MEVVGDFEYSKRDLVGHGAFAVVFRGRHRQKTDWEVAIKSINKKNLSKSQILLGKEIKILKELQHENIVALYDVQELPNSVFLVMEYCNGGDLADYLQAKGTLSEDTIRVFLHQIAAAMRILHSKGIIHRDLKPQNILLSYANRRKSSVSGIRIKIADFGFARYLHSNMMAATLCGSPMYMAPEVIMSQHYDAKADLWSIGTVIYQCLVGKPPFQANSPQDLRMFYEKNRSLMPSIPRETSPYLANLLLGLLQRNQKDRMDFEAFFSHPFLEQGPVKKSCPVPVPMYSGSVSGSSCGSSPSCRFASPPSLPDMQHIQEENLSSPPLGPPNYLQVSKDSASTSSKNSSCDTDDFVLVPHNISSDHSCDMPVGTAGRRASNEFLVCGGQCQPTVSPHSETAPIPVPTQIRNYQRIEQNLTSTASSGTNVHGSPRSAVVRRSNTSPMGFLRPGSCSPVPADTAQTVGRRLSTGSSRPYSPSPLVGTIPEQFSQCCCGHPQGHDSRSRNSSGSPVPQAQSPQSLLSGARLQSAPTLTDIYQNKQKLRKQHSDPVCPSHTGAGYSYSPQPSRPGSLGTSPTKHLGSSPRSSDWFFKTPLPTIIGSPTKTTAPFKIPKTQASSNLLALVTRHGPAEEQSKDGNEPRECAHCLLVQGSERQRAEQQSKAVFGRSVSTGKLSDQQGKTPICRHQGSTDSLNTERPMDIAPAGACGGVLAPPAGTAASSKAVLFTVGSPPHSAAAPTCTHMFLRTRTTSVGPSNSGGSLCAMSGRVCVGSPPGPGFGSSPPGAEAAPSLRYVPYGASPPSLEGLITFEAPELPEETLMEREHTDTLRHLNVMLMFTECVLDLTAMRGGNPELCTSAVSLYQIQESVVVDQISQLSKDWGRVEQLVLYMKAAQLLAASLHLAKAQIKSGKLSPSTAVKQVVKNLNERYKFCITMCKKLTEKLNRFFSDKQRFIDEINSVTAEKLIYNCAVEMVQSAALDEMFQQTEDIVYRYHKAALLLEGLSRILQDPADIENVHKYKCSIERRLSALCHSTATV
Experimental: as §1, §2, §3, §4, §5, §6

[7] = biological target: YES1 (Homo sapiens, UniProt P07947); assay: Kinase panel radiometric filter binding (33P-ATP); type: biochemical; parameters: % activity remaining: dose or concentration left out as unconfirmed; settings: for % activity remaining: YES1
Chain of YES1 (P07947 whole entry, species assumed): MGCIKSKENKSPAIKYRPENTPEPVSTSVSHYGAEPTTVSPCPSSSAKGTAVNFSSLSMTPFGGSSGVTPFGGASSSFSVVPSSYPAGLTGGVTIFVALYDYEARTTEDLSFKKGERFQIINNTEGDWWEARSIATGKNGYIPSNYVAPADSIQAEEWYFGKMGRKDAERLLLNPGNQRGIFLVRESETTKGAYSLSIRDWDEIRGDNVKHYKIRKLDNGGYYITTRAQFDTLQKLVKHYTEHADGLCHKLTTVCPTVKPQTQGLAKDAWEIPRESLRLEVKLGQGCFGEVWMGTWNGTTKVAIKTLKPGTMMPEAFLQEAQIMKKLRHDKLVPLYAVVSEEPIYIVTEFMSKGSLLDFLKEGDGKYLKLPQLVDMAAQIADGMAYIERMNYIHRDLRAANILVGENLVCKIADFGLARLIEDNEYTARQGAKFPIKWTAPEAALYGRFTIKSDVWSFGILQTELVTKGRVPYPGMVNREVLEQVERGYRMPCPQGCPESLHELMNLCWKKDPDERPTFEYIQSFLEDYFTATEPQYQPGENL
Experimental: as §1, §2, §3, §4, §5, §6

[8] = Microsomal stability, human; type: in vitro ADME; settings: human liver microsomes; read-out: HLM t1/2
Experimental: All single point assay determinations carried out in duplicate.
ADMET and PK experimental methods
Microsomal stability: analysis was performed by Cyprotex Discovery. […]

[9] = test system: CDK4/D1; parameters: method as in Reddy et al. 28; settings: ref Reddy et al. 28; cited from earlier work
[10] = test system: CDK6/D1; parameters: method as in Reddy et al. 28; settings: ref Reddy et al. 28; cited from earlier work
[11] = parameters: method as in PMID 24568969; settings: mice, I.V. dosing 5 mgkg^–1; cited from earlier work
[12] = radiometric filter binding panel

SMILES | % activity remaining [1] [%] | % activity remaining [2] [%] | % activity remaining [3] [%] | % activity remaining [4] [%] | % activity remaining [5] [%] | % activity remaining [6] [%] | % activity remaining [7] [%] | other results
Cc1cc(=O)n(C2CCCC2)c2nc(Nc3ccc(N4CC5CC(C4)N5C)cc3)ncc12 [Compound 9] | 14 | 56 | 49 | 44 | 12 | 17 | 13 | MAP4K5 pIC50 [1, 12]: > 7; IC50 ([1]; radiometric filter binding panel, read-out: MAP4K5 pIC50 (converted)): 110 nM; inhibition at 1 µM ([2]; at 1 μM, radiometric filter binding assay, Dundee, read-out: MARK1 single point % inhibition): 44%; inhibition at 1 µM ([3]; at 1 μM, radiometric filter binding assay, Dundee, read-out: MARK4 single point % inhibition): 51%; pIC50 [5]: 7.01; TrkA pIC50 [5, 12]: > 7; ULK2 pIC50 [6, 12]: 7.4 and 7.39; YES1 pIC50 [7, 12]: > 7; IC50 ([7]; radiometric filter binding panel, read-out: YES1 pIC50 (converted)): 75.9 nM
CN1CCN(c2ccc(Nc3ncc4cc(C#N)c(=O)n(C5CCCC5)c4n3)cc2)CC1 [Compound 3, Narazaciclib, reference compound] |  |  |  |  |  |  |  | half-life at 1 µM [8]: 6.9 min; CDK4/D1 pIC50 [9]: 8.4; CDK6/D1 pIC50 [10]: 8.0; plasma half-life t1/2 [11]: 90 min
CN1C2CC1CN(c1ccc(Nc3ncc4ccn(CC5CCOCC5)c4n3)cc1)C2 [Compound 24] | 78 | 94 | 95 | 13 | 72 | 75 | 46 | SIK2 pIC50 [4, 12]: 7.1 and 7.09
